In US6583138B1, “Heterocyclic-ring condensed benzothiazine compound” (Eisai Co., Ltd., priority 1998, dated 2003) one finds IC50 data, which are given here for 40 molecules.

Like-named read-outs stand apart in the source and are kept apart here.

One experiment concerns human basophils. Put plainly: Inhibition of mediator (histamine, peptide leukotriene) liberation from human basophils stimulated with mite antigen. Conditions: leukocyte fraction, enzyme immunoassay. The format is cell-based. The procedure:
(2) Inhibitory Effects on Various Mediators Release from Human Basophils
6 ml of 6% dextran (for separating leukocytes, having a high molecular weight) was added to 20 ml of heparinized blood. After stirring well, the resulting mixture was allowed to stand at 37° C. for 30 min and thus erythrocytes were precipitated. The upper layer was taken up and phosphate buffered saline was added thereto followed by centrifugation at 185 g for 8 minutes to give a crude leukocyte fraction. These cells were subjected to hypotonic hematolysis and then suspended in D-PBS(+) containing 0.1%-BSA. The resulting suspension was used in the subsequent experiment as the leukocyte fraction containing basophils. 0.4 ml of this cell suspension was preliminarily heated to 37° C. for 5 min and then 0.05 ml of a specimen solution was added thereto followed by a pretreatment at 37° C. for 15 min. Next, 0.05 ml of a mite antigen solution was added thereto to induce an antigen-antibody reaction. After 10 min, the reaction was ceased by ice-cooling. Then the reaction mixture was centrifuged again at 185 g for 10 min and histamine and peptide leukotrienes in the resulting supernatant were determined by using enzyme immunoassay kits. From the results of the assay, the activities of the a heterocyclic ring condensed benzothiazine compound of inhibiting the liberation of histamine and peptide leukotriene were determined.
The results are given in Table 2, wherein the term “leukotriene” means peptide leukotriene.

For a further experiment, the system named is RBL-2H3 cells. Put plainly: Inhibition of serotonin liberation from IgE-sensitized, antigen-stimulated RBL-2H3 cells. The format is cell-based. Conditions: Rattus norvegicus, [3H]-serotonin release, IgE-sensitized cells stimulated with specific antigen. The text has this: (1) Inhibitory Effects on Various Mediators Release from Rat Basophilic Leukemia Cell Line (RBL-2H3)
RBL-2H3cells (i.e., a cell line originating in rat cells), by stimulation with IgE sepecific antigen, not only release histamine and serotonin but also release and produce cytokines such as TNF α and prostaglandins which are inflammatory mediators. In this experimental system, inhibitory effects on various mediators release were examined by using serotonin as an indication.
The cells were beforehand labeled with [^3H]-labeled serotonin and, at the same time, sensitized with the IgE antibody. After incubating with the compounds of the present invention, they were stimulated with the specific antigen. Then the inhibitory activity of each compound was calculated from the amount of the [^3H]-labeled serotonin thus liberated into the medium due to the stimulation and the amount of [^3H]-labeled serotonin liberated when no compound of the present invention was added.

The mark [1] stands for this setting: histamine, read-out: IC50 (μM) in mediator liberation from human basophils: histamine.
Where [2] appears, read: peptide leukotriene, read-out: IC50 (μM) in mediator liberation from human basophils: leukotriene.

Turning to `Cc1ccc2c(c1C)N(CCCNCc1ccccc1)c1c(Br)csc1[S+]2[O-]` (centres unmarked) [Example 8, 9-(3-benzylaminopropyl)-7,8-dimethyl-3-thieno[1,4]benzothiazine-4-oxide], the IC50 with human basophils (setting [1]) was found to be 10 µM; with human basophils (setting [2]) it was 3 µM; in the experiment with RBL-2H3 cells it was 1 µM.
Regarding `Cc1ccc2c(c1C)N(CCCNCc1ccccc1)c1cc(Br)cnc1[S+]2[O-]` (centres unmarked) [Example 45], the IC50 in the experiment with RBL-2H3 cells is 1 µM.
With `Cc1ccc2c(c1C)N(CCCNCc1cccc(F)c1O)c1cnccc1[S+]2[O-]` (centres unmarked) [Example 41], in the experiment on RBL-2H3 cells, the IC50 was 3 µM.
On the same count and under the same terms, the result for `Cc1ccc2c(c1C)N(CCCNCc1ccccc1)c1cnccc1[S+]2[O-]` (centres unmarked) [Example 36] reads 4 µM.
Consider `Cc1ccc2c(c1C)N(CCCNCc1ccccc1)c1ccsc1[S+]2[O-]` (centres unmarked) [Example 1, 9-(3-Benzylaminopropyl)-7,8-dimethyl-3-thieno [1,4]benzothiazine-4-oxide], for which the results for the IC50 with human basophils (setting [1]), in the experiment with human basophils (setting [2]) and in the experiment with RBL-2H3 cells were 10 to 30 µM, 10 µM and 2 µM, respectively.
The matching figures for `Cc1ccc2c(c1C)N(CCCNCc1cccc(C)c1O)c1cccnc1[S+]2[O-]` (centres unmarked) [Example 18]: 30 µM, 10 to 30 µM and 2 µM.
The matching figures for `COc1cccc(CNCCCN2c3cnccc3[S+]([O-])c3ccc(C)c(C)c32)c1O` (centres unmarked) [Example 37]: 30 µM, 30 µM and 3 µM.
On the same counts, the results for `Cc1ccc2c(c1C)N(CCCNCc1ccccc1)c1c(sc(CO)c1Br)[S+]2[O-]` (centres unmarked) [Example 12, 1-Bromo-9-(3-benzylaminopropyl)-2-hydroxymethyl-7,8-dimethyl-3-thieno[1,4]benzothiazine-4-oxide] are 10 µM, 3 µM and 4 µM.
On to `Cc1ccc2c(c1C)N(CCCN(C)Cc1ccccc1)c1cccnc1[S+]2[O-]` (centres unmarked) [Example 35], for which the IC50 in the experiment with RBL-2H3 cells stood at 3 µM.
As for `Cc1ccc2c(c1C)N(CCCNC(C)(C)c1ccccc1)c1c(Br)csc1[S+]2[O-]` (stereo not drawn) [Example 7, 1-Bromo-7,8-dimethyl-9-[3-(α,α-dimethylbenzyl)aminopropyl]-3-thieno[1,4]benzothiazine-4-oxide], the IC50 in the experiment on human basophils (setting [1]) was 3 to 10 µM; with human basophils (setting [2]) it was 3 to 10 µM; in the experiment with RBL-2H3 cells, 2 µM.
With `COc1cccc(CNCCCN2c3cccnc3[S+]([O-])c3ccc(C)c(C)c32)c1` (centres unmarked) [Example 24], the IC50 in the experiment on RBL-2H3 cells was 4 µM.
On to `Cc1ccc2c(c1C)N(CCCN)c1cccnc1[S+]2[O-]` (centres unmarked) [Example 13], for which, in the experiment on RBL-2H3 cells, the IC50 turned out to be 3 µM.
In the case of `Cc1ccc2c(c1C)N(CCCNCc1ccccc1O)c1cccnc1[S+]2[O-]` (centres unmarked) [Example 16], the IC50 was 10 µM in the experiment on human basophils (setting [1]), 10 to 30 µM with human basophils (setting [2]) and 2 µM with RBL-2H3 cells.
As to `Cc1ccc2c(c1C)N(CCCNCN1CCN(Cc3ccccc3)CC1)c1cccnc1[S+]2[O-]` (centres unmarked) [Example 26], the IC50 in the experiment on RBL-2H3 cells was determined as 2 µM.
As for `Cc1ccc2c(c1C)N(CCCNCc1cccc(F)c1O)c1c(Br)csc1[S+]2[O-]` (centres unmarked) [Example 10], the IC50 in the experiment on human basophils (setting [1]) is 30 µM; in the experiment with human basophils (setting [2]), 3 to 10 µM; in the experiment on RBL-2H3 cells, 0.5 µM.
On the same counts, the results for `COc1ccc2c(n1)[S+]([O-])c1ccc(C)c(C)c1N2CCCNCc1ccccc1` (centres unmarked) [Example 43] are 30 µM, 10 µM and 2 µM.
Turning to `COc1ccccc1CNCCCN1c2cccnc2[S+]([O-])c2ccc(C)c(C)c21` (centres unmarked) [Example 20], the IC50 in the experiment on RBL-2H3 cells was 5 µM.
With `Cc1ccc2c(c1C)N(CCCNCc1ccccc1)c1c(CO)csc1[S+]2[O-]` (centres unmarked) [Example 11, 9-(3-benzylaminopropyl)-1-hydroxymethyl-7,8dimethyl-3-thieno[1,4]benzothiazine-4-oxide], the IC50 in the experiment on human basophils (setting [1]) is 10 µM; in the experiment with human basophils (setting [2]), 3 µM; with RBL-2H3 cells it was 5 µM.
For the molecule `Cc1cnc2c(c1)N(CCCNCc1ccccc1)c1c(ccc(C)c1C)[S+]2[O-]` (centres unmarked) [Example 47], the IC50 with RBL-2H3 cells worked out at 3 µM.
Consider `COc1ccsc1CNCCCN1c2ccsc2[S+]([O-])c2ccc(C)c(C)c21` (centres unmarked) [Example 6], for which the IC50 is 30 µM with human basophils (setting [1]), 10 to 30 µM with human basophils (setting [2]) and 2 µM with RBL-2H3 cells.
`COc1ccsc1CNCCCN1c2c(Br)csc2[S+]([O-])c2ccc(C)c(C)c21` (centres unmarked) [Example 9]: the IC50 in the experiment with human basophils (setting [1]) was 10 to 30 µM; in the experiment with human basophils (setting [2]), 3 µM; in the experiment with RBL-2H3 cells it was 0.5 µM.
Take `Cc1ccc2c(n1)[S+]([O-])c1ccc(C)c(C)c1N2CCCNCc1ccccc1` (centres unmarked) [Example 44]: the IC50 with RBL-2H3 cells came out at 2 µM.
As to `COc1c(CNCCCN2c3cccnc3[S+]([O-])c3ccc(C)c(C)c32)ccc(Cl)c1Cl` (centres unmarked) [Example 33], the results for the IC50 with human basophils (setting [1]), with human basophils (setting [2]) and in the experiment on RBL-2H3 cells were 10 to 30 µM, 3 to 10 µM and 2 µM, respectively.
For the molecule `Cc1ccc2c(c1C)N(CCCN)c1ccsc1[S+]2[O-]` (centres unmarked) [Example 3, 9-(3-Aminopropyl)-7,8-dimethyl-3-thieno[1,4]benzothiazine-4-oxide], the IC50 in the experiment on RBL-2H3 cells was found to be 8 µM.
Still for that read-out and setting: as for `Cc1ccc2c(c1C)N(CCCNCc1ccccc1)c1cc(C#N)cnc1[S+]2[O-]` (centres unmarked) [Example 48], the figure is 4 µM.
With `CCCOc1ccc2c(n1)[S+]([O-])c1ccc(C)c(C)c1N2CCCNCc1ccccc1` (centres unmarked) [Example 49], the IC50 with human basophils (setting [1]) is 10 to 30 µM; in the experiment with human basophils (setting [2]), 3 µM; in the experiment on RBL-2H3 cells it was 2 µM.
Regarding `Cc1ccc2c(c1C)N(CCCNCc1ccccc1N(C)C)c1cnccc1[S+]2[O-]` (centres unmarked) [Example 38], the IC50 in the experiment on RBL-2H3 cells was 4 µM.
In the case of `CCOc1ccc2c(n1)[S+]([O-])c1ccc(C)c(C)c1N2CCCNCc1ccccc1` (centres unmarked) [Example 52], the IC50 with human basophils (setting [1]) was 10 to 30 µM; with human basophils (setting [2]), 3 µM; in the experiment with RBL-2H3 cells it was 3 µM.
As for `COc1ccc(CNCCCN2c3cccnc3[S+]([O-])c3ccc(C)c(C)c32)cc1` (centres unmarked) [Example 25], the IC50 in the experiment with RBL-2H3 cells is 2 µM.
The same measure, in the same setting: the result for `Cc1ccc2c(c1C)N(CCCNCc1ccccc1)c1cccnc1[S+]2[O-]` (centres unmarked) [Example 15] reads 0.5 µM.
For `Cc1ccc2c(c1C)N(CCCNCc1cccs1)c1ccsc1[S+]2[O-]` (centres unmarked) [Example 4, 7,8-Dimethyl-9-[3-(2-thiophenyl)methylaminopropyl]-3-thieno[1,4]benzothiazine-4-oxide], the IC50 is 10 to 30 µM in the experiment on human basophils (setting [1]), 10 µM in the experiment on human basophils (setting [2]) and 2 µM in the experiment with RBL-2H3 cells.
As for `Cc1ccc2c(c1C)N(CCCNC(C)(C)c1ccccc1)c1cccnc1[S+]2[O-]` (centres unmarked) [Example 34], the IC50 with RBL-2H3 cells amounted to 5 µM.
The same measure, in the same setting: the result for `Cc1ccc2c(c1C)N(CCCNCN1CCN(Cc3ccccc3)CC1)c1cnccc1[S+]2[O-]` (centres unmarked) [Example 39] reads 3 µM; that for `Cc1ccc2c(c1C)N(CCCCNCc1ccccc1)c1cccnc1[S+]2[O-]` (centres unmarked) [Example 19], 1 µM.
On the same count and under the same terms, as for `COc1ccc(CNCCCN2c3ccsc3[S+]([O-])c3ccc(C)c(C)c32)o1` (centres unmarked) [Example 5], the figure is 6 µM.
`Cc1ccc2c(c1C)N(CCCNCc1ccc(Cl)cc1Cl)c1cccnc1[S+]2[O-]` (centres unmarked) [Example 31]: the values for the IC50 with human basophils (setting [1]), with human basophils (setting [2]) and with RBL-2H3 cells were 10 to 30 µM, 10 µM and 2 µM, respectively.
Take `Cc1ccc2c(c1C)N(CCCNCc1ccccc1)c1cc(Cl)cnc1[S+]2[O-]` (centres unmarked) [Example 46]: the IC50 with RBL-2H3 cells came out at 2 µM.
The same measure, in the same setting: as for `Cc1ccc2c(c1C)N(CCCNCc1ccccn1)c1cnccc1[S+]2[O-]` (centres unmarked) [Example 40], the figure is 4 µM.
For the molecule `COc1cccc(CNCCCN2c3cccnc3[S+]([O-])c3ccc(C)c(C)c32)c1O` (centres unmarked) [Example 17], the IC50 in the experiment on human basophils (setting [1]) is 10 to 30 µM; in the experiment with human basophils (setting [2]), 10 to 30 µM; with RBL-2H3 cells, 2 µM.
Turning to `Cc1ccc2c(c1C)N(CCCNC(C)(C)c1ccccc1)c1ccsc1[S+]2[O-]` (centres unmarked) [Example 2], the IC50 in the experiment with human basophils (setting [1]) is 30 µM; in the experiment with human basophils (setting [2]), 10 to 30 µM.
